The results in this text go back to patent US20240343710A1, “HETEROCYCLIC COMPOUNDS AND METHODS OF USE THEREOF” (1cBio, Inc., priority 2023, published 2024).

For orientation: IC50 means the concentration that gives 50% inhibition.

Counter-ions that a name gives are not always drawn.

Chain of recombinant human PARP1 (P09874 whole entry): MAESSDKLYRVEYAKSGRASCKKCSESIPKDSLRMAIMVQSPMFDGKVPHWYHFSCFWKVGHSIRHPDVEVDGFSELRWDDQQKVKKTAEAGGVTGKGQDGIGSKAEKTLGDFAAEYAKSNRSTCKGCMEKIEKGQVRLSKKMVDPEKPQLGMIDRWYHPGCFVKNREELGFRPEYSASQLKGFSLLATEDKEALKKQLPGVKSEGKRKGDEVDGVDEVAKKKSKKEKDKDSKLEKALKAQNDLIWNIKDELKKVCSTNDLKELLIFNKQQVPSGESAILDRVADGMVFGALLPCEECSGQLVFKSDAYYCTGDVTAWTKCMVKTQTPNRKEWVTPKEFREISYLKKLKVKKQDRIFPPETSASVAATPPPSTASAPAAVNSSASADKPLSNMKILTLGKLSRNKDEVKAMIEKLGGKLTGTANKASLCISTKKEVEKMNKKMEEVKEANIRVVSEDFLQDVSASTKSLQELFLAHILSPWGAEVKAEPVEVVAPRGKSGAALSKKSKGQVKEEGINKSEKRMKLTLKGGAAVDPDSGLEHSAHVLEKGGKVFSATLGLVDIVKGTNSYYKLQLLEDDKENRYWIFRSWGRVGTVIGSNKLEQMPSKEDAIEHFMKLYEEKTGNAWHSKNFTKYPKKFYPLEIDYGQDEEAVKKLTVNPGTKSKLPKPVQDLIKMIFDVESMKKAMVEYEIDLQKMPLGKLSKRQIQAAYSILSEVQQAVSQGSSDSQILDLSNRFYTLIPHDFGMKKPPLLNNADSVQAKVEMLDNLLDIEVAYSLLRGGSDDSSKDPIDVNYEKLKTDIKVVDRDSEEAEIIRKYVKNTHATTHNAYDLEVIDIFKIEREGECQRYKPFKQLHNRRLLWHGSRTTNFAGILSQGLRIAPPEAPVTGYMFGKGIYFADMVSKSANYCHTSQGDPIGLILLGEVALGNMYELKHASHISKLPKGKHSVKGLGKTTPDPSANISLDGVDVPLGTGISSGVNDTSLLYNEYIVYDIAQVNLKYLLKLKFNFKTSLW

The target in one test is recombinant human PARP1 (Homo sapiens, UniProt P09874). The test is described as follows: PARP1 fluorescence polarization binding assay. The note with it: GST-tagged PARP1 20 nM, PARP1-FL probe 3 nM. As for the experimental part:
In some embodiments, the biological assay is described in the Examples herein. In some embodiments, the biological assay measures PARP-1 binding by way of fluorescence polarization measurements. In some embodiments, binding of a test compound to recombinant human PARP-1 reduces the amount of binding of a fluorescent probe, and consequently reduces the detected level of fluorescence polarization. In some test compound stock solutions are prepared in a solvent, e.g., DMSO, and are serially diluted into a range of concentrations, e.g., 15 concentrations, 14 concentrations, 13 concentrations, 12 concentrations, 11 concentrations, 10 concentrations, 9 concentrations, 8 concentrations, 7 concentrations, 6 concentrations, or 5 concentrations, by a dilution factor, e.g., a 10-fold dilution factor, a 9-fold dilution factor, an 8-fold dilution factor, a 7-fold dilution factor, a 6-fold dilution factor, a 5-fold dilution factor, a 4-fold dilution factor, a 3-fold dilution factor, or a 2-fold dilution factor. In some embodiments, the serial dilutions, e.g., 100 nL of serial dilution, 90 nL of serial dilution, 80 nL of serial dilution, 70 nL of serial dilution, 60 nL of serial dilution, 50 nL of serial dilution, 30 nL of serial dilution, 20 nL of serial dilution, or 10 nL of serial dilution, are added to a multi-welled plate, e.g., a 1536-well plate, a 384-well plate, or a 96-well plate. In some embodiments, PARP-1, e.g., GST-tagged PARP-1, is diluted in assay buffer, e.g., 50 μL of assay buffer, 40 μL of assay buffer, e.g., 30 μL of assay buffer, 20 μL of assay buffer, 10 μL of assay buffer, or 5 μL of assay buffer, and is added to the plate. In some embodiments, the plate is centrifuged, e.g., at 1000 rpm for 1 min, and incubated, e.g., incubated for 30 minutes at room temperature (RT). In some embodiments, a fluorescent probe, e.g., 10 μL of 6 nM PARP1-FL (TOCRIS, Cat #6461), is diluted in an assay buffer and is added to the plate. In some embodiments, the final concentrations of PARP-1 and fluorescent probe are 20 nM and 3 nM, respectively, in a total volume of 20 μL. In some embodiments, the plate is centrifuged, e.g., at 1000 rpm for 1 minute, and the assay plate is incubated, e.g., for 4 h at RT. In some embodiments, the samples in each well are read using a plate reader, e.g., an Envision instrument using excitation=480 nm, and emission wavelength=FITC FP-P pol 535 nm & FITC FP-S pol 535 nm). In some embodiments, percent inhibition is calculated from mP values using Inhibition (%)=[1−(mPc−mPL)/(mPH−mPL)]×100%, where mPc, mPL, and mPH are the mP values of test compound, Low controls, and High controls, respectively. In some embodiments, binding IC50 values are calculated using XLFit (equation 201: y=A+((B−A)/(1+((x/C)^D))), where A=bottom, B=top, C=IC50, and D=slope) with a floating top and bottom for curves.
Compounds of the present disclosure were tested in a PARP1 fluorescence polarization binding assay at Pharmaron (Beijing, P.R. China). In this biochemical assay, binding of test compound to recombinant human PARP1 reduces the amount of binding of a fluorescent probe, and consequently reduces the detected level of fluorescence polarization. Test compound stock solutions were prepared in DMSO and then serially diluted into 10 concentrations by 3-fold dilution in a 384-well plate using a TECAN EVO200. Alternatively, a single concentration was prepared. 60 nL of each dilution was transferred to the plate using an Echo550 (Labcyte), and then 10 μL 40 nM GST-tagged PARP1 (BPS Bioscience, Cat #80501), diluted in assay buffer (50 mM Tris pH 8.0, 0.001% Triton X-100, 10 mM MgCl2, 150 mM NaCl), was added to the plate. After a centrifugation at 1000 rpm for 1 min, the assay plate was incubated for 30 min at RT. 10 μL 6 nM PARP1-FL (TOCRIS, Cat #6461), diluted using assay buffer, was then added to the plate. The final concentrations of PARP1 and PARP1-FL were 20 nM and 3 nM, respectively, in a total volume of 20 μL. […]
(In general: Fluorescence polarisation rises when a labelled molecule tumbles more slowly, as on binding a larger partner.)
As to `CNC(=O)C(=O)Nc1cc(CN2CCN(c3ccc(C(=O)NC)nc3C)CC2)ns1` [Compound 280, N1-methyl-N2-(3-((4-(2-methyl-6-(methylcarbamoyl)pyridin-3-yl)piperazin-1-yl)methyl)isothiazol-5-yl) oxalamide formate], the concentration for half-maximal inhibition (IC50) is no less than 3 µM.

Turning to `CCNS(=O)(=O)Nc1cc(CN2CCN(c3ccc(C(=O)NC)nc3C)CC2)ccn1` [Compound 105, 5-(4-((2-((N-ethylsulfamoyl)amino)pyridin-4-yl)methyl)piperazin-1-yl)-N,6-dimethylpicolinamide], the IC50 was no less than 3 µM. For `CCNC(=O)Nc1cc(CN2CCN(c3ccc(C(=O)NC#N)nc3C)CC2)ccn1` [Compound 3, N-cyano-5-(4-((2-(3-ethylureido)pyridin-4-yl)methyl)piperazin-1-yl)-6-methylpicolinamide dihydrochloride], the IC50 was no less than 3 µM. Still for that read-out and setting: to `CCNC(=O)Nc1cc(CN2CCN(c3ccc(C(=O)NC)nc3C)CC2)no1` [Compound 279, 5-(4-((5-(3-ethylureido)isoxazol-3-yl)methyl)piperazin-1-yl)-N,6-dimethylpicolinamide] belongs less than 0.1 µM. With `CCNC(=O)Nc1cc(CN2CCN(c3ccc(C(=O)NC)nc3C)CC2)n(C)n1` [Compound 281, 5-(4-((3-(3-ethylureido)-1-methyl-1H-pyrazol-5-yl)methyl)piperazin-1-yl)-N,6-dimethylpicolinamide trihydrochloride], the IC50 was less than 0.1 µM.

A further test deals with recombinant human PARP2 (Homo sapiens, UniProt Q9UGN5). The test is described as follows: PARP2 fluorescence polarization binding assay. The note with it: percent inhibition at 10 μM, fluorescence polarization, GST-tagged PARP2 20 nM, PARP1-FL probe 3 nM; read-out: PARP2 % inh at 10 μM.
Chain of recombinant human PARP2 (Q9UGN5 whole entry): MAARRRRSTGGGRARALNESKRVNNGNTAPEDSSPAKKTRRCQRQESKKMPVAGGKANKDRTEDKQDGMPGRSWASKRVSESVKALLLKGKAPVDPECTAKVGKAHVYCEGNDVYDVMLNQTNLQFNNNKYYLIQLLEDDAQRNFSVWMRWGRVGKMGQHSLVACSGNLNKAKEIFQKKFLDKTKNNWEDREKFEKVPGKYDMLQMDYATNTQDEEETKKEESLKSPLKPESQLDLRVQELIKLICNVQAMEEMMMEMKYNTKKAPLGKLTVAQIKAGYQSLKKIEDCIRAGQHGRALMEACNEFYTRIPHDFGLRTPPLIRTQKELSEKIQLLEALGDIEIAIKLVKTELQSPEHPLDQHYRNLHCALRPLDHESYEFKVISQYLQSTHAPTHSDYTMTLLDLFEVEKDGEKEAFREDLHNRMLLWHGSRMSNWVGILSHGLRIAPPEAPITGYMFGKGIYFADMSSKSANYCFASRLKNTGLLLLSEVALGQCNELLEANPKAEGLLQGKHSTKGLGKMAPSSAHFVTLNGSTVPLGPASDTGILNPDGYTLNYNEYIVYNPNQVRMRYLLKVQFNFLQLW
As to `CCNS(=O)(=O)Nc1cc(CN2CCN(c3ccc(C(=O)NC)nc3C)CC2)ccn1` [Compound 105, 5-(4-((2-((N-ethylsulfamoyl)amino)pyridin-4-yl)methyl)piperazin-1-yl)-N,6-dimethylpicolinamide], the inhibition at 10 µM is less than 33%.
